Laboratory results: ChEMBL document CHEMBL4028802, “DILIrank: the largest reference drug list ranked by the risk for developing drug-induced liver injury in humans” (Drug Discov Today, 2016)

Experiments:
[1] = species on record: Homo sapiens; experiment: Liver toxicity in human assessed as induction of drug-induced liver injury by measuring severity class index
[2] = species on record: Homo sapiens; experiment: Liver toxicity in human assessed as induction of drug-induced liver injury by measuring verified drug-induced liver injury concern status
For DILI severity class in this document: key of the grades not given here.

Row | Molecule | DILI_severity_class [1] | DILI_Concern [2]
1 | Nc1cccc2c1CN(C1CCC(=O)NC1=O)C2=O (stereo not given) [LENALIDOMIDE] | 3 | Less-Dili-Concern
2 | Cc1ccc(/C(=C\CN2CCCC2)c2ccccn2)cc1 [TRIPROLIDINE] | 0 | No-Dili-Concern
3 | COc1ccccc1OCC(O)CO (stereo not given) [GUAIFENESIN] | 0 | No-Dili-Concern
4 | CC(C)c1cccc(C(C)C)c1OCOP(=O)(O)O [FOSPROPOFOL] | 0 | Less-Dili-Concern
5 | Cc1cn(-c2cc(NC(=O)c3ccc(C)c(Nc4nccc(-c5cccnc5)n4)c3)cc(C(F)(F)F)c2)cn1 [NILOTINIB] | 4 | Ambiguous-Dili-Concern
6 | OCCOCCN1CCN(C2=Nc3ccccc3Sc3ccccc32)CC1 [QUETIAPINE] | 3 | Less-Dili-Concern
7 | Cc1ccc(N(CC2=NCCN2)c2cccc(O)c2)cc1 [PHENTOLAMINE] | 0 | No-Dili-Concern
8 | CCOC(=O)c1cncn1[C@H](C)c1ccccc1 [ETOMIDATE] | 0 | No-Dili-Concern
9 | COC(=O)[C@H](c1ccccc1)[C@H]1CCCCN1 [DEXMETHYLPHENIDATE] | 7 | Less-Dili-Concern
10 | CNCCC=C1c2ccccc2CCc2ccccc21 [NORTRIPTYLINE] | 8 | Most-Dili-Concern
11 | Cc1nc(Nc2ncc(C(=O)Nc3c(C)cccc3Cl)s2)cc(N2CCN(CCO)CC2)n1.O [DASATINIB] | 4 | Less-Dili-Concern
12 | Cc1ccc(O)c([C@H](CCN(C(C)C)C(C)C)c2ccccc2)c1 [TOLTERODINE] | 0 | No-Dili-Concern
13 | C#C[C@]1(O)CC[C@H]2[C@@H]3CCC4=Cc5oncc5C[C@]4(C)[C@H]3CC[C@@]21C [DANAZOL] | 8 | Most-Dili-Concern
14 | CC(=O)N1CCN(c2ccc(OCC3COC(Cn4ccnc4)(c4ccc(Cl)cc4Cl)O3)cc2)CC1 (stereo not given) [KETOCONAZOLE] | 8 | Most-Dili-Concern
15 | Cc1cn([C@@H]2C[C@@H](O)[C@H](CO)O2)c(=O)[nH]c1=O [TELBIVUDINE] | 2 | Ambiguous-Dili-Concern
16 | CC1=C(C/C=C(\C)CCC[C@H](C)CCC[C@H](C)CCCC(C)C)C(=O)c2ccccc2C1=O [PHYTONADIONE] | 0 | No-Dili-Concern
17 | CNS(=O)(=O)Cc1ccc2[nH]cc(CCN(C)C)c2c1 | 3 | Ambiguous-Dili-Concern
18 | CCOc1ccccc1OCCN[C@H](C)Cc1ccc(OC)c(S(N)(=O)=O)c1 [TAMSULOSIN] | 0 | Less-Dili-Concern
19 | CCOC(=O)C1=C(COCCN)NC(C)=C(C(=O)OC)C1c1ccccc1Cl (stereo not given) [AMLODIPINE] | 5 | Less-Dili-Concern
20 | O=C(CCCN1CCC(O)(c2ccc(Cl)cc2)CC1)c1ccc(F)cc1 [HALOPERIDOL] | 5 | Less-Dili-Concern

Row | Molecule | DILI_severity_class [1] | DILI_Concern [2]
21 | Cc1ncc2n1-c1ccc(Cl)cc1C(c1ccccc1F)=NC2 [MIDAZOLAM] | 0 | No-Dili-Concern
22 | C[C@@H](O)[C@H]1C(=O)N2C(C(=O)O)=C(S[C@@H]3CN[C@H](CNS(N)(=O)=O)C3)[C@H](C)[C@H]12 [DORIPENEM] | 3 | Ambiguous-Dili-Concern
23 | CC(C)(S)[C@@H](N)C(=O)O [PENICILLAMINE] | 2 | Less-Dili-Concern
24 | NC[C@H](O)c1ccc(O)c(O)c1 [NOREPINEPHRINE] | 0 | No-Dili-Concern
25 | COc1ccc2cc(CCC(C)=O)ccc2c1 [NABUMETONE] | 3 | Ambiguous-Dili-Concern
26 | Cc1cn([C@H]2C[C@H](N=[N+]=[N-])[C@@H](CO)O2)c(=O)[nH]c1=O [ZIDOVUDINE] | 8 | Most-Dili-Concern
27 | CO/N=C(\C(=O)N[C@@H]1C(=O)N2C(C(=O)O)=C(COC(N)=O)CS[C@H]12)c1ccco1 [CEFUROXIME] | 5 | Less-Dili-Concern
28 | Nc1nc(F)nc2c1ncn2[C@@H]1O[C@H](COP(=O)(O)O)[C@@H](O)[C@@H]1O [FLUDARABINE PHOSPHATE] | 0 | No-Dili-Concern
29 | O=C(O)COc1nn(Cc2ccccc2)c2ccccc12 [BENDAZAC] | 8 | Most-Dili-Concern
30 | [82Rb+].[Cl-] [RUBIDIUM CHLORIDE RB 82] | 0 | No-Dili-Concern
31 | C[C@@H](Cc1ccccc1)NC(=O)[C@@H](N)CCCCN [LISDEXAMFETAMINE] | 3 | Ambiguous-Dili-Concern
32 | CN[C@@H]1[C@H](O)[C@H](NC)[C@H]2O[C@@]3(O)C(=O)C[C@@H](C)O[C@H]3O[C@@H]2[C@H]1O [SPECTINOMYCIN] | 3 | Ambiguous-Dili-Concern
33 | Cc1ncc(C[n+]2csc(CCO)c2C)c(N)n1 [THIAMINE ION] | 0 | No-Dili-Concern
34 | CN1CCC(Nc2ncc3ncnc(Nc4ccc(F)c(Cl)c4)c3n2)CC1 [FALNIDAMOL] | 8 | Most-Dili-Concern
35 | GALLIUM NITRATE | 3 | Ambiguous-Dili-Concern
36 | Cc1onc(-c2ccccc2)c1-c1ccc(S(N)(=O)=O)cc1 [VALDECOXIB] | 3 | Less-Dili-Concern
37 | COc1cc(NC(C)CCCN)c2ncccc2c1 (stereo not given) [PRIMAQUINE] | 0 | No-Dili-Concern
38 | NC(=O)C[S+]([O-])C(c1ccccc1)c1ccccc1 (stereo not given) [MODAFINIL] | 3 | Less-Dili-Concern
39 | CNCCCC12CCC(c3ccccc31)c1ccccc12 [MAPROTILINE] | 5 | Ambiguous-Dili-Concern
40 | OC(CCN1CCCCC1)(c1ccccc1)C1CCCCC1 (stereo not given) [TRIHEXYPHENIDYL] | 0 | No-Dili-Concern

Row | Molecule | DILI_severity_class [1] | DILI_Concern [2]
41 | CN(CCOc1ccc(CC2SC(=O)NC2=O)cc1)c1ccccn1 (stereo not given) [ROSIGLITAZONE] | 3 | Less-Dili-Concern
42 | CN1C(=O)CC(C)(c2ccccc2)C1=O (stereo not given) [METHSUXIMIDE] | 0 | No-Dili-Concern
43 | OC(Cn1cncn1)(Cn1cncn1)c1ccc(F)cc1F [FLUCONAZOLE] | 8 | Most-Dili-Concern
44 | CC(=O)N(O)CCCCCNC(=O)CCC(=O)N(O)CCCCCNC(=O)CCC(=O)N(O)CCCCCN [DEFEROXAMINE] | 0 | Less-Dili-Concern
45 | CN1CC(=O)N2[C@H](c3ccc4c(c3)OCO4)c3[nH]c4ccccc4c3C[C@@H]2C1=O | 3 | Ambiguous-Dili-Concern
46 | C=C1/C(=C\C=C2/CCC[C@]3(C)[C@@H]([C@H](C)/C=C/[C@H](C)C(C)C)CC[C@@H]23)C[C@@H](O)C[C@@H]1O [DOXERCALCIFEROL] | 3 | Ambiguous-Dili-Concern
47 | NC[C@@H]1O[C@H](O[C@H]2[C@@H](O)[C@H](O[C@@H]3[C@@H](O)[C@H](N)C[C@H](N)[C@H]3O[C@H]3O[C@H](CO)[C@@H](O)[C@H](O)[C@H]3N)O[C@@H]2CO)[C@H](N)[C@@H](O)[C@@H]1O [PAROMOMYCIN] | 0 | No-Dili-Concern
48 | Nc1nc(Cl)nc2c1ncn2[C@@H]1O[C@H](CO)[C@@H](O)[C@@H]1F [CLOFARABINE] | 8 | Ambiguous-Dili-Concern
49 | CC(COc1ccccc1)NC(C)C(O)c1ccc(O)cc1 (stereo not given) [ISOXSUPRINE] | 0 | No-Dili-Concern
50 | CC(C)(C)NC[C@H](O)COc1ccccc1C1CCCC1 [PENBUTOLOL] | 0 | No-Dili-Concern
51 | COC(=O)C1=C(C)NC(C)=C(C(=O)OC)C1c1ccccc1[N+](=O)[O-] [NIFEDIPINE] | 3 | Less-Dili-Concern
52 | O=C(O)CCNC(=O)c1ccc(/N=N/c2ccc(O)c(C(=O)O)c2)cc1 [BALSALAZIDE] | 8 | Ambiguous-Dili-Concern
53 | CO/N=C1\CN(c2nc3c(cc2F)c(=O)c(C(=O)O)cn3C2CC2)CC1CN (stereo not given) [GEMIFLOXACIN] | 3 | Less-Dili-Concern
54 | CC(=O)O[C@H]1C[C@@H]2CC[C@@H]3[C@H](CC[C@@]4(C)[C@H]3C[C@H]([N+]3(C)CCCCC3)[C@@H]4OC(C)=O)[C@@]2(C)C[C@@H]1[N+]1(C)CCCCC1 [PANCURONIUM] | 0 | No-Dili-Concern
55 | CO[C@H]1/C=C/O[C@@]2(C)Oc3c(C)c(O)c4c(c3C2=O)C2=NC3(CCN(CC(C)C)CC3)NC2=C(NC(=O)/C(C)=C\C=C\[C@H](C)[C@H](O)[C@@H](C)[C@@H](O)[C@@H](C)[C@H](OC(C)=O)[C@@H]1C)C4=O [RIFABUTIN] | 5 | Less-Dili-Concern
56 | Fc1ccccc1C1=NCC(=S)N(CC(F)(F)F)c2ccc(Cl)cc21 [QUAZEPAM] | 0 | No-Dili-Concern
57 | O=P(O)(O)C(O)(Cc1cccnc1)P(=O)(O)O [RISEDRONIC ACID] | 3 | Ambiguous-Dili-Concern
58 | C[C@H]1O[C@@H](O[C@H]2[C@@H](O)C[C@H](O[C@H]3[C@@H](O)C[C@H](O[C@H]4CC[C@@]5(C)[C@H](CC[C@@H]6[C@@H]5C[C@@H](O)[C@]5(C)[C@@H](C7=CC(=O)OC7)CC[C@]65O)C4)O[C@@H]3C)O[C@@H]2C)C[C@H](O)[C@@H]1O [DIGOXIN] | 0 | No-Dili-Concern
59 | Clc1ccc(C(c2ccccc2Cl)C(Cl)Cl)cc1 (stereo not given) [MITOTANE] | 0 | No-Dili-Concern
60 | Fc1ccc([C@@H]2CCNC[C@H]2COc2ccc3c(c2)OCO3)cc1 [PAROXETINE] | 8 | Less-Dili-Concern
